Biological target: T1, PKG-1α (Homo sapiens, UniProt Q13976, Y247F)
T1 sequence (Q13976 2-671 Y247F): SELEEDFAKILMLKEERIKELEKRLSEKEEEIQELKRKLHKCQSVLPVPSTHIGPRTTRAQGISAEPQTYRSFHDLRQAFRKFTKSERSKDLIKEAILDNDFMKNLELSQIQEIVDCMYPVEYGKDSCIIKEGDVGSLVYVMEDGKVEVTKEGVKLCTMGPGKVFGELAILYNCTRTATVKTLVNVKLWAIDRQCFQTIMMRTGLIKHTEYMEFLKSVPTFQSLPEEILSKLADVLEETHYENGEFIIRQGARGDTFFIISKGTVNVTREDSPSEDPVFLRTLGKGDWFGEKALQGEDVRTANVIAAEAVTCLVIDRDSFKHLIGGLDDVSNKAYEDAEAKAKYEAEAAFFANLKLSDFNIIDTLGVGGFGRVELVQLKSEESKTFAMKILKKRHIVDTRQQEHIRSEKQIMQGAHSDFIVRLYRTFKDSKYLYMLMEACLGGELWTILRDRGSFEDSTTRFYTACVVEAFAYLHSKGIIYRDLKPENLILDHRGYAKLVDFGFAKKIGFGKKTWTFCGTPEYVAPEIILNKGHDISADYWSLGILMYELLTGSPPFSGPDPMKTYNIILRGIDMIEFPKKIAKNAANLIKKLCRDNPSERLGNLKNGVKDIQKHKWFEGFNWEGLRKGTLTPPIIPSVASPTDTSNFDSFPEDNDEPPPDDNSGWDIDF
Assay: PKG activity in transfected HEK-293T cells
Assay type: cell-based
Set-up: made in house; host or cells: HEK-293T
Details: HEK-293T expressing Y247F-PKG-1α; SIN-1 500 μM, 30 min
Protocol: To determine the role of tyrosine 247 and tyrosine 425 in mediating the nitration dependent inhibition of PKG-1α kinase activity, Y247F- and Y425F-PKG-1α mutants were generated and expressed in HEK-293T cells. HEK-293T cells were transiently transfected with expression plasmids containing WT-, Y247F-, or Y425F-PKG-1α for 48 h. […] Protein extracts were immunoprecipitated using an antibody raised against PKG-1α and the level of nitrated PKG-1α determined by probing the membranes with an antiserum raised against 3-NT. The blots were then stripped and re-probed for PKG-1α to normalize for the efficiency of the immunoprecipitation.
Total PKG activity was determined using a non-radioactive immunoassay in cell lysates, according to the manufacturer's directions. […]
After incubation for 30 min at 30° C. to allow the phosphorylation of the bound substrate, an HRP conjugated anti-phosphothreonine specific antibody was added to convert a chromogenic substrate to a colorimetric substrate that was subsequently read spectrophotometrically at 450 nm. The change in absorbance reflected the relative activity of PKG in the sample. […] The kinetic constants were determined using nonlinear regression (curve fit) analysis (GraphPad Prism Software Inc.).

- cGMP dependent PKG activity: unaffected
Substance: 3-morpholinosydnonimine N-ethylcarbamide [SIN-1]

Reference: patent publication US9551711B2, “Compositions and methods for detecting nitration of PKG-1α and methods of use thereof” (Augusta University Research Institute, Inc., priority 2013, dated 2017)
